Data on five molecules can be found in US20050220888A1, “Controlled release compositions and methods for using same” (priority 2002, published 2005).

The conditions of data set [1]: encapsulated in a variety of shell materials, administered to beagles; cited from earlier work.
Data set [2] relates to IL-6 production by HUVEC cells. As to the kind of experiment: Inhibition of histamine-induced IL-6 mRNA production (RT-PCR against HPRT). Format: cell-based, human. Particulars: 5 hours. The source says: Various assays also exist for identifying a highest pharmacological activity enantiomer of a given pharmacologically active agent. Where the pharmaceutical activity is as a histamine antagonist, IL-6 production by HUVEC cells is a cell biomarker of histamine activity and is used to assess the relative antagonistic activity of prospective H1 blockers. IL-6 production in human endothelial cells is known to be induced by histamine due to H1 and H2 receptor binding with H1 the dominant effect. Delneste, et al. As H1 antagonism is directly linked to reduced emesis during motion sickness treatment, this assay serves as an in vitro methodology for the selection of potential motion sickness and antihistamine candidates. Realtime RT-PCR analysis of IL-6 mRNA synthesis in HUVEC cells stimulated with histamine is employed as an in vitro assay for the analysis of the relative efficacy of potential antihistaminic agents.
A preferred assay for measuring activity of phenothiazine and other histamine antagonists comprises: providing at least a first viable culture and a second viable culture comprising Huvec cells; exposing the first viable culture to a first combination comprising histamine and the (+)-enantiomer of the phenothiazine under conditions effective to inhibit IL-6 mRNA expression; exposing the second viable culture to a combination comprising histamine and the (−)-enantiomer of the phenothiazine under conditions effective to inhibit IL-6 mRNA expression; measuring inhibition of IL-6 mRNA expression induced by the first combination and the second combination after at least four hours to identify a (+)-enantiomer inhibition value and a (−)-enantiomer inhibition value; and selecting as the highest pharmacological activity enantiomer the enantiomer having the greater inhibition value selected from the group consisting of the (+)-enantiomer inhibition value and the (−)-enantiomer inhibition value.
Huvec cells were plated and grown to confluence in 6-well plates. […] Total RNA was isolated using Tri-reagent and subjected to reverse transcription polymerase chain reaction (RT-PCR) analysis of IL-6 production using semiquantitative analysis against HPRT expression (control gene).
The procedures of Example 3 were repeated using the (+)-enantiomer (#2) and the (−)-enantiomer (#1) of EPZ at 10^−5 molar and 10^−6 molar, and TPZ at 10^−5 molar.

Data set [3] relates to L929 lung fibroblast. Particulars: shown by previous studies; cited from earlier work.

Structures can show the parent of a compound that is named as a salt.

For the molecule `CC(CN1c2ccccc2Sc2ccccc21)N(C)C` (racemic) [Promethazine, promethazine hydrochloride], the nasal irritation result in data set [1] is listed as “severe nasal irritation was observed”. In data set [2] (10^−5 M with Histamine 10^−4 M, relative to cells stimulated only with histamine), the “inhibition of histamine stimulation of IL-6 production” value turned out to be 50%.

Take `CC(CN1c2ccccc2Sc2ccccc21)N(C)C.Cl` (single isomer, unassigned; (+)) [(+) enantiomer, (+)-Promethazine hydrochloride]: the “IL-6 production reduced to % of the histamine stimulated cell” value in data set [2] (10^−5 M with Histamine 10^−4 M) is 90%.

As to `CC(CN1c2ccccc2Sc2ccccc21)N(C)C.Cl` (single isomer, unassigned; (-)) [(−) enantiomer, (−)-Promethazine hydrochloride], in data set [2] (10^−5 M with Histamine 10^−4 M), the “reduction in IL-6 production” value is on record as 50%.

Take `C=C(C)C(=O)OCC(O)COc1ccc(C(C)(C)c2ccc(OCC(O)COC(=O)C(=C)C)cc2)cc1` (stereo not drawn) [BisGMA]: the “cytotoxicity of control in this assay” value in data set [3] was “significantly cytotoxic”.

`NCCc1c[nH]cn1` [Histamine]: the “increase in IL-6 mRNA production” value in data set [2] (Histamine alone 10^−4 M, versus endogenous production) amounted to 50%.
